# Laboratory results reported in patent publication US20170226059A1, “APOE4-TARGETED THERAPUTICS THAT INCREASE SIRT1” (The Regents of the University of California, priority 2014, published 2017).
# System: SirT1
# Experiment: Primary AlphaLISA screening assay: SirT1 levels in N2a cells stably transfected with ApoE4
# Assay type: cell-based, mouse
# Settings: N2A neuroblastoma cells stably transfected with ApoE4
# Description: We have developed a primary screening assay that is HTS formatable; the assay would be done on N2a cells (mouse neuroblastoma cells) that have been stably transfected with ApoE3 and ApoE4. The cells are treated with drugs and the SirT1 levels are measured using the AlphaLISA assay that we have developed, e.g., as shown in FIG. 11. The illustrated AlphaLISA uses an antibody (Ab, E104, Abcam) that binds the C-terminus of SirT1 and is on the acceptor bead. The N-terminal Ab (D1D7, Abcam) is biotinylated and binds to the donor bead. For the primary assay the Neuro-2a (N2a) cells stably expressing similar levels of hApoE3 or hApoE4 are used. The primary assay can be done in triplicate. The N2a cells have reasonably good endogenous levels of APP thus avoiding the necessity of APP transfection. In general, for the assays N2a cells stably transfected with hApoE3 (E3) or hApoE4 (E4) are plated, e.g., at […] in 384-well plates in […] of growth medium and allowed to attached for 3 h. The E4 cells are treated with compounds overnight, E3 cells are controls. The following day, growth medium is removed and cells are lysed with AlphaLysis buffer complemented with protease and phosphatase inhibitors.
# Then, the AlphaLISA assay is run and molecules that can increase or reverse the SirT1 levels in ApoE4 cells are identified. A preliminary estimate, based on the initial screening which yielded two reproducible “hits” from a set of 1000 compounds, which is a 0.2% hit-rate. […] Our initial screening was done on a small library of about 1000 compounds. The assay is translatable to a HTS format.
row,Molecule,SirT1 levels (dose-response)
1,"Clc1cccc(Cl)c1N=C1NCCN1 [Compound A02, clonidine]",flat

# Same assay, conditions: initial screen of about 1000 compounds
row,Molecule,effect on SirT1 levels in initial screen
1,CNCCC(Oc1ccc(C(F)(F)F)cc1)c1ccccc1 (stereo not drawn) [Prozac],no affect on SirT1 levels

# Same assay, conditions: primary screening assay, ApoE4 cells
row,Molecule,Primary Assay (SrT1 increase)
1,"1-(3,4-difluorophenyl)-2-methylpropan-2-yl 2-aminoethanoate [Compound 21]",II (activity II 10-30%)
2,1-(4-chlorophenyl)-2-methylpropan-2-yl pyrrolidine-2-carboxylate [Compound 20],I (activity I < 10%)
3,2-amino-N-(1-(4-chlorophenyl)-2-methylpropan-2-yl)propanamide [Compound 15],III (activity III > 30 SrT1 increase)
4,"CC(N)C(=O)OC(C)(C)Cc1ccccc1 (stereo not drawn) [Compound 1, 2-methyl-1-phenylpropan-2-yl 2-aminopropanoate]",II (activity II 10-30%)
5,"CC(C)(Cc1ccc(Cl)cc1)OC(=O)C(N)Cc1ccccc1 (stereo not drawn) [Compound 2, 1-(4-chlorophenyl)-2-methylpropan-2-yl 2-amino-3-phenylpropanoate]",I (activity I < 10%)
6,"CC(N)C(=O)OC(C)(C)Cc1ccc(F)c(F)c1 (stereo not drawn) [Compound 3, 1-(3,4-difluorophenyl)-2-methylpropan-2-yl 2-aminopropanoate]",III (activity III > 30 SrT1 increase)
7,"CC(N)C(=O)OC(C)(C)Cc1ccc(F)cc1 (stereo not drawn) [Compound 4, 1-(4-fluorophenyl)-2-methylpropan-2-yl 2-aminopropanoate]",II (activity II 10-30%)
8,"CC(C)CC(N)C(=O)OC(C)(C)Cc1ccc(Cl)cc1 (stereo not drawn) [Compound 5, 1-(4-chlorophenyl)-2-methylpropan-2-yl 2-amino-4-methylpentanoate]",I (activity I < 10%)
9,"Cc1ccc(CC(C)(C)OC(=O)C(C)N)cc1 (stereo not drawn) [Compound 6, 2-methyl-1-p-tolylpropan-2-yl 2-aminopropanoate]",II (activity II 10-30%)
10,"CC(C)(Cc1ccc(Cl)cc1)OC(=O)CN [Compound 7, 1-(4-chlorophenyl)-2-methylpropan-2-yl 2-aminoethanoate]",II (activity II 10-30%)
11,"CC(C)C(N)C(=O)OC(C)(C)Cc1ccc(Cl)cc1 (stereo not drawn) [Compound 8, 1-(4-chlorophenyl)-2-methylpropan-2-yl 2-amino-3-methylbutanoate]",II (activity II 10-30%)
12,"CC(N)C(=O)OC1(Cc2ccc(Cl)cc2)CCC1 (stereo not drawn) [Compound 9, 1-(4-chlorobenzyl)cyclobutyl 2-aminopropanoate]",I (activity I < 10%)
13,"CC(N)C(=O)OC1(Cc2ccc(Cl)cc2)CCCCC1 (stereo not drawn) [Compound 10, 1-(4-chlorobenzyl)cyclohexyl 2-aminopropanoate]",I (activity I < 10%)
14,"CCC(C)C(N)C(=O)OC(C)(C)Cc1ccc(Cl)cc1 (stereo not drawn) [Compound 11, 1-(4-chlorophenyl)-2-methylpropan-2-yl 2-amino-3-methylpentanoate]",II (activity II 10-30%)
15,"CC(N)C(=O)OC(C)(C)CCc1ccc(Cl)cc1 (stereo not drawn) [Compound 12, 4-(4-chlorophenyl)-2-methylbutan-2-yl 2-aminopropanoate]",II (activity II 10-30%)
16,"CC(C)(Cc1ccc(Cl)cc1)OC(=O)C(N)CCCCN (stereo not drawn) [Compound 13, 1-(4-chlorophenyl)-2-methylpropan-2-yl 2,6-diaminohexanoate]",II (activity II 10-30%)
17,"CC(N)C(=O)OC(C)(C)Cc1cc(F)cc(F)c1 (stereo not drawn) [Compound 14, 1-(3,5-difluorophenyl)-2-methylpropan-2-yl 2-aminopropanoate]",III (activity III > 30 SrT1 increase)
18,"CC(C)(Cc1ccc(Cl)cc1)OC(=O)C(N)CO (stereo not drawn) [Compound 16, 1-(4-chlorophenyl)-2-methylpropan-2-yl 2-amino-3-hydroxypropanoate]",II (activity II 10-30%)
19,"CC(C)(Cc1ccc(Cl)cc1)OC(=O)CCN [Compound 17, 1-(4-chlorophenyl)-2-methylpropan-2-yl 3-aminopropanoate]",I (activity I < 10%)
20,"C[C@H](N)CC(=O)OC(C)(C)Cc1ccc(Cl)cc1 [Compound 18, (S)-1-(4-chlorophenyl)-2-methylpropan-2-yl 3-aminobutanoate]",I (activity I < 10%)
21,"CC(C)(Cc1ccc(Cl)cc1)OC(=O)C1CCCCN1 (stereo not drawn) [Compound 19, 1-(4-chlorophenyl)-2-methylpropan-2-yl piperidine-2-carboxylate]",II (activity II 10-30%)
22,"CC(N)C(=O)NC(C)(C)Cc1ccc(F)c(F)c1 (stereo not drawn) [Compound 22, 2-amino-N-(1-(3,4-difluorophenyl)-2-methylpropan-2-yl)propanamide]",III (activity III > 30 SrT1 increase)
23,"CNC(C)C(=O)OC(C)(C)Cc1ccc(Cl)cc1 (stereo not drawn) [Compound 23, 1-(4-chlorophenyl)-2-methylpropan-2-yl 2-(methylamino)propanoate]",I (activity I < 10%)
24,"CC(C)(Cc1ccc(F)c(F)c1)NC(=O)C1CCCN1 (stereo not drawn) [Compound 24, N-(1-(3,4-difluorophenyl)-2-methylpropan-2-yl)pyrrolidine-2-carboxamide]",II (activity II 10-30%)

# System: p-tau
# Experiment: tau phosphorylation (p-tau) in cells transfected with ApoE4
# Assay type: cell-based
# Settings: not given
# Description: sAPPα or sAPPβ secreted into the cellular media are determined with sAPPα or sAPPβ AlphaLISA immunoassay kits (PerkinElmer) according to the manufacturer's protocol with some modifications. The standards, blanks, and media are diluted with the buffer provided in the kit and added to the plate. During the first incubation step, the analyte is captured either by an antibody recognizing the α-secretase cleavage site at sAPPα C-terminus (clone 2B3) or the sAPPβ C-terminus, and then by a second biotin-labeled antibody specific to the N-terminal common domain of sAPP. In the second incubation step, the biotinylated anti-analyte antibody is bound to the streptavidin-coated donor beads. At the end of this reaction, the plates are read on an EnSpire Alpha 2390 multilabel plate reader equipped with the AlphaScreen module. The Aβ1-42 or 1-40 are determined from media and/or cells using Life Science's sandwich ELISA kit. The levels of Aβ are quantified from a standard curve and normalized to total cellular protein (Spilman et al. (2014) Brain Res. 1551: 25-44; Theendakara et al. (2013) Proc. Natl. Acad. Sci. USA, 10(45): 18303-18308), Tau and p-tau are determined from cell extracts by a solid phase double antibody sandwich ELISA technology designed for quantitative determination of phospho-tau (Antibodies-Online). […]
row,Molecule,p-tau
1,CC(C)CC(=O)Nc1[nH]nc2c1CN(C(=O)C1CCN(C)CC1)C2(C)C [PHA793887],attenuated

# System: sAPPα
# Experiment: sAPPα levels in the presence of ApoE4 (AlphaLISA)
# Assay type: cell-based
# Settings: in the presence of ApoE4 (ApoE4-transfected cells)
# Description: (§1) sAPPα or sAPPβ secreted into the cellular media are determined with sAPPα or sAPPβ AlphaLISA immunoassay kits (PerkinElmer) according to the manufacturer's protocol with some modifications. The standards, blanks, and media are diluted with the buffer provided in the kit and added to the plate. During the first incubation step, the analyte is captured either by an antibody recognizing the α-secretase cleavage site at sAPPα C-terminus (clone 2B3) or the sAPPβ C-terminus, and then by a second biotin-labeled antibody specific to the N-terminal common domain of sAPP. In the second incubation step, the biotinylated anti-analyte antibody is bound to the streptavidin-coated donor beads. At the end of this reaction, the plates are read on an EnSpire Alpha 2390 multilabel plate reader equipped with the AlphaScreen module. The Aβ1-42 or 1-40 are determined from media and/or cells using Life Science's sandwich ELISA kit. The levels of Aβ are quantified from a standard curve and normalized to total cellular protein (Spilman et al. (2014) Brain Res. 1551: 25-44; Theendakara et al. (2013) Proc. Natl. Acad. Sci. USA, 10(45): 18303-18308), Tau and p-tau are determined from cell extracts by a solid phase double antibody sandwich ELISA technology designed for quantitative determination of phospho-tau (Antibodies-Online). APP and p-APP are determined by the DuoSet IC ELISA (R&D Systems) to measure phosphorylated APP in cell lysates. An immobilized capture antibody specific for APP binds both phosphorylated and unphosphorylated APP. After unbound material is washed away, a biotinylated detection antibody is used to detect either APP or phosphor-APP utilizing a standard HRP format. Using these assay procedures we notice a significant increase in p-tau and p-APP levels in ApoE4-transfected cells. It can be determined whether the primary “hits” reverse the ApoE4-mediated APP-Thr phosphorylation and tau-phosphorylation.
row,Molecule,sAPPα levels
1,Cc1c[nH]c(-c2cnc(NCCNc3ccc(C#N)cn3)nc2-c2ccc(Cl)cc2Cl)n1 [CHIR99021],reversed the reduction in sAPPα

# Same assay, conditions: in the presence of ApoE4 (ApoE4-transfected cells); listed as CHIR
row,Molecule,sAPPα levels
1,Cc1c[nH]c(-c2cnc(NCCNc3ccc(C#N)cn3)nc2-c2ccc(Cl)cc2Cl)n1 [CHIR99021],restores sAPPα levels

# System: p-APP
# Experiment: APP phosphorylation (p-APP) in cells transfected with ApoE4
# Assay type: cell-based
# Settings: not given
# Description: as §1
row,Molecule,APP phosphorylation (p-APP)
1,Cc1c[nH]c(-c2cnc(NCCNc3ccc(C#N)cn3)nc2-c2ccc(Cl)cc2Cl)n1 [CHIR99021],reversed
2,CC(C)CC(=O)Nc1[nH]nc2c1CN(C(=O)C1CCN(C)CC1)C2(C)C [PHA793887],attenuated

# Same assay, conditions: listed as CHIR
row,Molecule,APP phosphorylation (p-APP)
1,Cc1c[nH]c(-c2cnc(NCCNc3ccc(C#N)cn3)nc2-c2ccc(Cl)cc2Cl)n1 [CHIR99021],reduces APP phosphorylation

# System: obese mice
# Experiment: not given
# Settings: cited from earlier work
row,Molecule,extension of lifespan [%]
1,O=C(Nc1ccccc1-c1cn2c(CN3CCNCC3)csc2n1)c1cnc2ccccc2n1 [SRT1720],44
